Literature values in patent publication US10336750B2, “Composition and methods for the treatment of CaMKK2-mediated disorders” (Duke University, priority 2015, dated 2019).

Tested on: neovascular remodeling (NVR) in experimental laser-induced CNV
Settings: aged (16 month-old) mice, systemic depletion of macrophages, compared to sham control

O=P(O)(O)C(Cl)(Cl)P(=O)(O)O [clodronate]
NVR phenotype, lesion size and fibrosis (choroidal flatmounts by FITC-dextran): abrogation of the NVR phenotype, resulting in smaller lesions with less fibrosis
